Legend:
[1] = system: Unkräuter, wie z. B. Amaranthus, Chenopodium, Ipomoea, Portulak und Solanum; assay: Post-emergence test (herbicidal action on weeds); assay type: in vivo; details: post-emergence spray on test plants 5 - 15 cm high, 2000 l Wasser/ha; damage rated after three weeks against untreated control; stated in comparison with Vergleichssubstanz (A)
Text: (§1) Post-emergence-Test Lösungsmittel: 5 Gewichtsteile Aceton Emulgator: 1 Gewichtsteil Alkylarylpolyglykolether
(§2) Zur Herstellung einer zweckmäßigen Wirkstoffzubereitung vermischt man 1 Gewichtsteil Wirkstoff mit der angegebenen Menge Lösungsmittel, gibt die angegebene Menge Emulgator zu und verdünnt das Konzentrat mit Wasser auf die gewünschte Konzentration.
(§3) Mit der Wirkstoffzubereitung spritzt man Testpflanzen, welch eine Höhe von 5 - 15 cm haben so, daß die jeweils gewünschten Wirkstoffmengen pro Flächeneinheit ausgebracht werden. Die Konzentration der Spritzbrühe wird so gewählt, daß in 2000 l Wasser/ha die jeweils gewünschten Wirkstoffmengen ausgebracht werden. Nach drei Wochen wird der Schädigungsgrad der Pflanzen bonitiert in % Schädigung im Vergleich zur Entwicklung der unbehandelten Kontrolle. Es bedeuten: 0 % = keine Wirkung (wie unbehandelte Kontrolle) 100 % = totale Vernichtung

Mais = details: in vivo
Text: as §1, §2, §3

Baumwollpflanzen = assay: Defoliation and desiccation of the leaves of cotton; assay type: in vivo, Baumwolle; details: cotton plants in the greenhouse, 5th leaf fully unfolded, sprayed dripping wet; rated after 1 week against control plants (scale 0, +, ++, +++)
Text: Entlaubung und Austrocknung der Blätter bei Baumwolle
Lösungsmittel: 30 Gewichtsteile Dimethylformamid Emulgator: 1 Gewichtsteil Polyoxyethylen-Sorbitan-Monolaurat
Zur Herstellung einer zweckmäßigen Wirkstoffzubereitung vermischt man 1 Gewichtsteil Wirkstoff mit den angegebenen Mengen Lösungsmittel und Emulgator und füllt mit Wasser auf die gewünschte Konzentration auf.
Baumwollpflanzen werden im Gewächshaus bis zur vollen Entfaltung des 5. Folgeblattes angezogen. In diesem Stadium werden die Pflanzen tropfnaß mit den Wirkstoffzubereitungen besprüht. Nach 1 Woche werden der Blattfall und das Austrocknen der Blätter im Vergleich zu den Kontrollpflanzen bonitiert. Es bedeuten: 0 kein Austrocknen der Blätter, kein Blattfall + leichtes Austrocknen der Blätter, geringer Blattfall ++ starkes Austrocknen der Blätter, starker Blattfall +++ sehr starkes Austrocknen der Blätter, sehr starker Blattfall

Selektivität in Mais (Mais) | Structure (SMILES) | Wirkung gegen Unkräuter [1] | Austrocknen der Blätter (Baumwollpflanzen) | Blattfall (Baumwollpflanzen)
guter Selektivität | COC(=O)C(Cl)Cc1cc(Oc2c(Cl)cc(C(F)(F)F)cc2Cl)ccc1Cl (stereo not drawn) [Beispiel 1, 2-Chlor-3-[3-(2,6-dichlor-4-trifluormethyl-phenoxy)-6-chlor-phenyl]-propionsäure-methylester] | erheblich stärkere Wirkung | sehr starkes | sehr starken
guter Selektivität | COC(=O)C(Br)Cc1cc(Oc2c(Cl)cc(C(F)(F)F)cc2Cl)c(Cl)cc1Cl (stereo not drawn) [Beispiel 2, 2-Brom-3-[3-(2,6-dichlor-4-trifluormethyl-phenoxy)-4,6-dichlorphenyl]-propionsäuremethylester] | erheblich stärkere Wirkung | – | –
guter Selektivität | COC(=O)CCc1cc(Oc2c(Cl)cc(C(F)(F)F)cc2Cl)ccc1Cl [Beispiel 3, 3-[3-(2,6-dichlor-4-trifluormethyl-phenoxy)-6-chlor-phenyl]-propionsäuremethylester] | erheblich stärkere Wirkung | sehr starkes | sehr starken
guter Selektivität | COC(=O)CC(Br)c1cc(Oc2c(Cl)cc(C(F)(F)F)cc2Cl)ccc1Cl (stereo not drawn) [Beispiel 4, 3-Brom-3-[3-(2,6-dichlor-4-trifluormethyl-phenoxy)-6-chlorphenyl]-propionsäuremethylester] | erheblich stärkere Wirkung | – | –

Source: EP0313908A2, “Halogen-substituted phenoxyphenylpropionic acid derivatives” (BAYER AG, priority 1987, dated 1989)
